Measured values as given in article PMC4008261, “Rewiring of regenerated axons by combining treadmill training with semaphorin3A inhibition” (Molecular Brain, 2014).

Legend:
[1] = target: Protein Tyrosine Phosphatase, T-Cell (Homo sapiens, UniProt P17706); assay: Pharmacological profile: enzyme inhibition; assay type: biochemical
Source text: (§1) Table 1 Pharmacological profile of SM-345431 (part 1) | column: IC50 (μm)

[2] = target: Protein Tyrosine Phosphatase, CD45 (Homo sapiens, UniProt P08575); assay: Pharmacological profile: enzyme inhibition; assay type: biochemical
Source text: as §1

Caspase 7 = Caspase 7 (Homo sapiens, UniProt P55210); assay: Pharmacological profile: enzyme inhibition; assay type: biochemical
Source text: as §1

[3] = target: Matrix Metalloproteinase-2 (MMP-2) (Homo sapiens, UniProt P08253); assay: Pharmacological profile: enzyme inhibition; assay type: biochemical
Source text: as §1

[4] = target: Sphingomyelinase, Neutral (N-SMase); assay: Pharmacological profile: enzyme inhibition; assay type: biochemical
Source text: as §1

Semaphorin = Semaphorin (Homo sapiens, UniProt Q14563); assay: Pharmacological profile: semaphorin inhibition; assay type: cell-based
Source text: In our previous study, we used an osmotic mini-pump to deliver the semaphorin3A inhibitor SM-216289 [20]. However, in clinical practice, this type of invasive drug delivery method is not ideal. Therefore, we developed a novel DDS that utilizes a silicone matrix to continuously deliver SM-345431 (a newly developed semaphorin3A inhibitor) intrathecally. We evaluated the drug release profile of SM-345431 in this new silicone matrix preparation and the potency of SM-345431-mediated semaphorin3A inhibition in vitro (Figure 1). […] When chick embryonic DRG explants and semaphorin3A-expressing COS7 cell aggregates (semaphorin3A-COS) were co-cultured in a collagen gel, the neurites of the DRG explants grew away from the semaphorin3A-COS, as shown in Figure 1B. […] We also evaluated the selectivity of SM-345431 for semaphorin3A inhibition by examining the pharmacological profile of SM-345431 (Tables 1 and 2). […] The release of SM-345431 (0.1 mg/mg loading 10%) in vivo was calculated as 0.5-0.7 μg/day, and this dose was similar to the dose of the semaphorin3A inhibitor (SM-216289) that we administered using osmotic mini pumps in our previous study. […]

SCT adult rats = assay: Remyelination after SCT (MBP/GAP43 immunostaining, electron microscopy); assay type: in vivo, rat
Procedure: Rats were randomly divided into the following three experimental groups: 1) untrained + placebo, 2) untrained + SM-345431 and 3) trained + SM-345431. SCT was performed, and SM-345431 or placebo was administered at the lesion site via the newly developed DDS, which is described in detail below. Starting 1 week post-injury, treadmill training commenced with a BSS. Kinematic tests were performed monthly for 3 months after SCT using a rodent robotic device (Rodent robot 3000, Robomedica Inc.) that primarily assessed the performance of plantar stepping on a treadmill. Treadmill training was continued throughout the experimental period.
A total of 53 adult female Sprague-Dawley rats (200-250 g, 10-12 weeks old) were used in this study (3 rats died during the experimental period and were excluded from the statistical analysis). All procedures were approved by the experimental animal care committee of Keio University, School of Medicine and Murayama Medical Center (approval #12-8). All rats were anesthetized with an intraperitoneal injection of ketamine (100 mg/kg)/xylazine (10 mg/kg). The spinal cord at the level of the T10 lamina was exposed by T10 laminectomy, and the dorsal dura mater was opened. […] Kinematic data were recorded using similar procedures prior to re-transection surgery (on the same day) and on the day following re-transection surgery. […]

Semaphorin, sequence (Q14563 21-771): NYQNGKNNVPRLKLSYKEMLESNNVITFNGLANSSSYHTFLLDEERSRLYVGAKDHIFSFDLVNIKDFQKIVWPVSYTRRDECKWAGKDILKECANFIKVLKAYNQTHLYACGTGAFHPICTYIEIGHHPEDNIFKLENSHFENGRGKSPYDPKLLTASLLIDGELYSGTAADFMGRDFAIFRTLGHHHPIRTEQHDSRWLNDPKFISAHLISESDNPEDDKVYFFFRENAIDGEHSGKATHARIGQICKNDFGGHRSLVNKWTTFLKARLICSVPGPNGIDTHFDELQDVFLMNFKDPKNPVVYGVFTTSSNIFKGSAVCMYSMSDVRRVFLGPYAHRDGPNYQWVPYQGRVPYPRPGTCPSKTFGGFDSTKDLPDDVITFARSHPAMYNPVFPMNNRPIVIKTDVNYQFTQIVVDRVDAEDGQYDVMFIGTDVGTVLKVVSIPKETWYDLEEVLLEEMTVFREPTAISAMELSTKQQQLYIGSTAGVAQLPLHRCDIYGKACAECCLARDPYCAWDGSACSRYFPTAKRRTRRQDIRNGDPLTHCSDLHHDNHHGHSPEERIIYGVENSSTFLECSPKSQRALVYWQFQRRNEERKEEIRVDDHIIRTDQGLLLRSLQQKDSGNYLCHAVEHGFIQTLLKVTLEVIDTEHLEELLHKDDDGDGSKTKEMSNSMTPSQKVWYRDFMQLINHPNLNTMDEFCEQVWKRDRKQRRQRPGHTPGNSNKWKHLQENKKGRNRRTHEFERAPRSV
Protein Tyrosine Phosphatase, T-Cell, sequence (P17706 whole entry): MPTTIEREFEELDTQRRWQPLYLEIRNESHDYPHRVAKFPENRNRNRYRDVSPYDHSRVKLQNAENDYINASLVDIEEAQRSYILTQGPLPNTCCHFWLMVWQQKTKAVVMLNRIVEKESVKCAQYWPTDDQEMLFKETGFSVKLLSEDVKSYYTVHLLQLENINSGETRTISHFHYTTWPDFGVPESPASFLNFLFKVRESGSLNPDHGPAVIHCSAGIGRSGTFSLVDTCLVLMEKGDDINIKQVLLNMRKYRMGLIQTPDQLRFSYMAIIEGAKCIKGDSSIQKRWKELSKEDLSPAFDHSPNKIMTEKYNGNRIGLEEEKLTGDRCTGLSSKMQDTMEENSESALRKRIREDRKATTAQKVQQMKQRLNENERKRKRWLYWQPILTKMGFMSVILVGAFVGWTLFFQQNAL
Caspase 7, sequence (P55210 24-198 limits assumed, species assumed): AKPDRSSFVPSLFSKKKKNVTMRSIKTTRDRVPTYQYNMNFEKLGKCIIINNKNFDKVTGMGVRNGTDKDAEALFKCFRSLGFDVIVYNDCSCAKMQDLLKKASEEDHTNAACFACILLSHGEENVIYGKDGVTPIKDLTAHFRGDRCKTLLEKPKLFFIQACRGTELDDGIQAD
Caspase 7, sequence (P55210 207-303 limits assumed, species assumed): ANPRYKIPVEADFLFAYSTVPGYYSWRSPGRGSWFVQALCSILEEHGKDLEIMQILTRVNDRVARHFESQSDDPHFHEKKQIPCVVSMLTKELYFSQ
Matrix Metalloproteinase-2 (MMP-2), sequence (P08253 110-660, species assumed): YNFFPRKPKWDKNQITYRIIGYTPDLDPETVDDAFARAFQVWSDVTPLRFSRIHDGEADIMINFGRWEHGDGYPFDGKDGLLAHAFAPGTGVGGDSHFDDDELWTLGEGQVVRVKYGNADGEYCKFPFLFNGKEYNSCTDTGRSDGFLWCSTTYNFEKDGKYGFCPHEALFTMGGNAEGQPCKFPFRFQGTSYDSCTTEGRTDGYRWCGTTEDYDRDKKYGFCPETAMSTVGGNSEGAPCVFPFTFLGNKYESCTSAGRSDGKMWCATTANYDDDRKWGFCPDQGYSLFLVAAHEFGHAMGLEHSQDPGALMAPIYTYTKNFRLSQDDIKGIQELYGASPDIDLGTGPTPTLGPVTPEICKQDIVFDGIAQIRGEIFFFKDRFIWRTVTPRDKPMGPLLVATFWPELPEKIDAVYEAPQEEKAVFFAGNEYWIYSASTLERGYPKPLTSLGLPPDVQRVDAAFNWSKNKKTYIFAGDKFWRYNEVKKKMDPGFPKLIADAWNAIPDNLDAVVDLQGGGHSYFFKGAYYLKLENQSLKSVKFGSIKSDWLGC
Protein Tyrosine Phosphatase, CD45, sequence (P08575 26-1306): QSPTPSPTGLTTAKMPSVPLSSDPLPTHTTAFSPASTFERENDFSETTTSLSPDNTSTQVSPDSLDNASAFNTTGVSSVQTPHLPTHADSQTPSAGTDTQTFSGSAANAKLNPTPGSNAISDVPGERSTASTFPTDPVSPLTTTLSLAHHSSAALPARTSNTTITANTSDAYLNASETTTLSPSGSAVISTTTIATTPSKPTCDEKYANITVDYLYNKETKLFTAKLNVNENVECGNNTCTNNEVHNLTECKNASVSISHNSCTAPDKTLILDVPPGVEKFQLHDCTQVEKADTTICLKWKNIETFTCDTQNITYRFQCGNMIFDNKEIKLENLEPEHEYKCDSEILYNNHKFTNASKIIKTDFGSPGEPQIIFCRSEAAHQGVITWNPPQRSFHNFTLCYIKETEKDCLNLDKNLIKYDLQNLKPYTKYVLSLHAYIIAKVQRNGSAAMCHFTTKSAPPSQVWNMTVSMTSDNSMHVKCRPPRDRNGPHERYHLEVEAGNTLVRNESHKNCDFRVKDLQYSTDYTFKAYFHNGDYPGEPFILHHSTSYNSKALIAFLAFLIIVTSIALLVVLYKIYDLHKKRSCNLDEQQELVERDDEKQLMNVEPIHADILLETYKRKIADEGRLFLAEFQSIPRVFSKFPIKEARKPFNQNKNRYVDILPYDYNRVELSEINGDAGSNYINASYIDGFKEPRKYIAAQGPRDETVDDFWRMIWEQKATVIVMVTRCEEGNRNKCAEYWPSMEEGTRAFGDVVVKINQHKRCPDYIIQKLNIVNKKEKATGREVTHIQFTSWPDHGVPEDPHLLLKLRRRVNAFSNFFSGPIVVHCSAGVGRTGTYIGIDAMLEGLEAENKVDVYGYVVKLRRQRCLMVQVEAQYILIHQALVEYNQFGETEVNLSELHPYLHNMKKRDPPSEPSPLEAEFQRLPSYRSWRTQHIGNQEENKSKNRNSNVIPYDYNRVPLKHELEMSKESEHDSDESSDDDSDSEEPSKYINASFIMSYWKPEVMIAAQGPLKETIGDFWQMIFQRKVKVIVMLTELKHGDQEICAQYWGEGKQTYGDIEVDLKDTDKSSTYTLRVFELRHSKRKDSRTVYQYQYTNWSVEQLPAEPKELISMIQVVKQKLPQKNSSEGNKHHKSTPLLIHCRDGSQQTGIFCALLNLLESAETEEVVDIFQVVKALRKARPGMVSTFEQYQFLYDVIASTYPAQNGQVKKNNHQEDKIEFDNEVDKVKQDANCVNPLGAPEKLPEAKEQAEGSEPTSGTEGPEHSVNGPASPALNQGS

**Q.** For CC(=O)c1cc2c(=O)c3c(C(=O)O)c(O)c(O)cc3oc2c(C(C)=O)c1-c1coc2cc(O)c(O)c(C(=O)O)c2c1=O [SM-345431, Vinaxanthone], which IC50 [1] is on record?
**A.** > 10 µM

**Q.** What about the IC50 [2] of the same compound?
**A.** > 10 µM

**Q.** What about the IC50 (Caspase 7) of the same compound?
**A.** > 10 µM

**Q.** And the IC50 [3]?
**A.** > 10 µM

**Q.** And the IC50 [4]?
**A.** > 10 µM

**Q.** And the IC50 (Semaphorin)?
**A.** 100 to 200 nM

**Q.** And the “semaphorin3A inhibitory activity compared with SM-216289” value (Semaphorin)?
**A.** approximately the same semaphorin3A inhibitory activity as SM-216289

**Q.** What about the “remyelination of axons (myelinated GAP43-positive axons at the lesion site)” value (SCT adult rats; SM-345431 alone, 12 weeks post-injury) of the same compound?
**A.** significantly enhanced the remyelination of axons

**Q.** And the “remyelination of axons (myelinated GAP43-positive axons at the lesion site)” value (SCT adult rats; SM-345431 plus treadmill training, compared with SM-345431 alone)?
**A.** additional remyelination was not observed
